IC50 data for 31 compounds are collected here from US20230278981A1, “DICHLOROPHENOL HSD17B13 INHIBITORS AND USES THEREOF” (INIPHARM, INC., priority 2020, published 2023).

Where a name gives a salt, the structure may show the parent alone.

The target in this test is HSD17B13 (Homo sapiens (Human), UniProt Q7Z5P4). Put plainly: LC/MS estrone detection assay: conversion of estradiol to estrone by HSD17B13. The test is classed as biochemical. Particulars: 4 μM estradiol, 6 mM NAD+, 30 nM HSD17B13 enzyme (E. coli expressed His-tagged), 2 hours at 26.5° C. In outline: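 His-tagged E. coli-expressed HSD17B13 (30 nM) with 4 μM estradiol and 6 mM NAD+ in 1 M potassium phosphate pH 7.4, 0.5% DMSO, 2 h at 26.5° C. Estrone and estradiol quantified by LC-MS/MS after MeCN quench with D4-estrone internal standard; activity as % of uninhibited enzyme, IC50 by four-parameter fit, duplicates.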
Sequence of HSD17B13 (Q7Z5P4 20-300): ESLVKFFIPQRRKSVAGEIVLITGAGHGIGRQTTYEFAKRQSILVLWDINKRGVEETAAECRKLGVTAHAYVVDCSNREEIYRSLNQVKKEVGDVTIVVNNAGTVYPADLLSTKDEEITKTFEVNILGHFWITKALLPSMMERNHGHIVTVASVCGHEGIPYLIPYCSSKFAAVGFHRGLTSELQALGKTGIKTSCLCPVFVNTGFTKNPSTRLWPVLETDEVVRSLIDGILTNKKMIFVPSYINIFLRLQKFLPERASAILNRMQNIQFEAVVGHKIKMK

Broadly, the IC50 is the concentration that inhibits the measured activity by half. A high value points to weaker potency. For the compound `O=C(Nc1ccc(F)c2ncn(Cc3ccccc3OC(F)(F)F)c(=O)c12)c1cc(Cl)c(O)c(Cl)n1` [Example 133, 4,6-dichloro-N-(8-fluoro-4-oxo-3-{[2-(trifluoromethoxy)phenyl]methyl}-3,4-dihydroquinazolin-5-yl)-5-hydroxypyridine-2-carboxamide], the concentration for half-maximal inhibition (IC50) is 100 to 500 nM.

Consider `N#Cc1cccc(Cn2cnc3cccc(NC(=O)c4cc(Cl)c(O)c(Cl)c4)c3c2=O)c1` [Example 48, 3,5-dichloro-N-(3-(3-cyanobenzyl)-4-oxo-3,4-dihydroquinazolin-5-yl)-4-hydroxybenzamide], for which the IC50 lay within 100 to 500 nM.

As for `[2H]C([2H])([2H])c1nc2c(C)ccc(NC(=O)c3cc(Cl)c(O)c(Cl)c3)c2c(=O)n1Cc1ccccc1C(F)(F)F` [Example 179, 3,5-dichloro-4-hydroxy-N-(8-methyl-2-(methyl-d3)-4-oxo-3-(2-(trifluoromethyl)benzyl)-3,4-dihydroquinazolin-5-yl)benzamide], the half-maximal inhibitory concentration (IC50) was no more than 100 nM.

For `O=C(Nc1ncsc1C(=O)NCc1ccccc1OC(F)(F)F)c1cc(Cl)c(O)c(Cl)c1` [Example 27, 4-(3,5-dichloro-4-hydroxybenzamido)-N-(2-(trifluoromethoxy)benzyl)thiazole-5-carboxamide], the IC50 was in the range of 100 to 500 nM.

Compound `[2H]C([2H])([2H])c1nc2c(C)ccc(NC(=O)c3cc(Cl)c(O)c(Cl)n3)c2c(=O)n1Cc1ccccc1OC(F)(F)F` [Example 176, 4,6-dichloro-5-hydroxy-N-(8-methyl-2-(methyl-d3)-4-oxo-3-(2-(trifluoromethoxy)benzyl)-3,4-dihydroquinazolin-5-yl)picolinamide] yielded a concentration for half-maximal inhibition (IC50) of no more than 100 nM.

In turn, `Cn1nc(NC(=O)c2cc(Cl)c(O)c(Cl)n2)c2c(=O)n(Cc3ccccc3OC(F)(F)F)cnc21` [Example 119, 4,6-dichloro-5-hydroxy-N-(1-methyl-4-oxo-5-(2-(trifluoromethoxy)benzyl)-4,5-dihydro-1H-pyrazolo[3,4-d]pyrimidin-3-yl)picolinamide] gave an IC50 of 100 to 500 nM.

For the compound `Cc1nc2c(F)ccc(NC(=O)c3cc(Cl)c(O)c(Cl)c3)c2c(=O)n1Cc1nn(C)c2ccccc12` [Example 190, 3,5-dichloro-N-(8-fluoro-2-methyl-3-((1-methyl-1H-indazol-3-yl)methyl)-4-oxo-3,4-dihydroquinazolin-5-yl)-4-hydroxybenzamide], the IC50 is no more than 100 nM.

`Cc1ccc(NC(=O)c2cc(Cl)c(O)c(Cl)n2)c2c(=O)n(Cc3ncccc3C(F)(F)F)c(C)nc12` [Example 153, 4,6-dichloro-N-(2,8-dimethyl-4-oxo-3-((3-(trifluoromethyl)pyridin-2-yl)methyl)-3,4-dihydroquinazolin-5-yl)-5-hydroxypicolinamide] came in with an IC50 of 100 to 500 nM.

Compound `O=C(Nc1cccc2ncn(Cc3ccccc3C(F)(F)F)c(=O)c12)c1cc(Cl)c(O)c(Cl)c1` [Example 18, 3,5-dichloro-4-hydroxy-N-(4-oxo-3-(2-(trifluoromethyl)benzyl)-3,4-dihydroquinazolin-5-yl)benzamide] displayed an IC50 of no more than 100 nM.

Compound `CC(C)(C)CCNC(=O)c1ccccc1NC(=O)c1cc(Cl)c(O)c(Cl)c1` [Example 71, 3,5-dichloro-N-(2-((3,3-dimethylbutyl)carbamoyl)phenyl)-4-hydroxybenzamide] gave an IC50 of 100 to 500 nM.

In turn, `Cn1c(=O)n(Cc2ccccc2OC(F)(F)F)c(=O)c2c(NC(=O)c3cc(Cl)c(O)c(Cl)c3)cccc21` [Example 93, 3,5-dichloro-4-hydroxy-N-(1-methyl-2,4-dioxo-3-(2-(trifluoromethoxy)benzyl)-1,2,3,4-tetrahydroquinazolin-5-yl)benzamide] gave an IC50 of no more than 100 nM.

In turn, `Cc1nc2nccc(NC(=O)c3cc(Cl)c(O)c(Cl)c3)c2c(=O)n1Cc1ccccc1OC(F)(F)F` [Example 96, 3,5-dichloro-4-hydroxy-N-(2-methyl-4-oxo-3-(2-(trifluoromethoxy)benzyl)-3,4-dihydropyrido[2,3-d]pyrimidin-5-yl)benzamide] registered an IC50 of no more than 100 nM.

`Cn1nc(Cn2cnc3cccc(NC(=O)c4cc(Cl)c(O)c(Cl)c4)c3c2=O)c2ccccc21` [Example 117, 3,5-dichloro-4-hydroxy-N-(3-((1-methyl-1H-indazol-3-yl)methyl)-4-oxo-3,4-dihydroquinazolin-5-yl)benzamide]: the IC50 was no more than 100 nM.

With `CS(=O)(=O)c1cccc(Cn2cnc3cccc(NC(=O)c4cc(Cl)c(O)c(Cl)c4)c3c2=O)c1` [Example 60, 3,5-dichloro-4-hydroxy-N-(3-(3-(methylsulfonyl)benzyl)-4-oxo-3,4-dihydroquinazolin-5-yl)benzamide.], the IC50 fell in the range of 500 to 1000 nM.

Take `O=C(Nc1cccc2ncn([C@@H]3C[C@H]3c3ccccc3)c(=O)c12)c1cc(Cl)c(O)c(Cl)n1` [Example 108, 4,6-dichloro-5-hydroxy-N-(4-oxo-3-((1R,2S)-2-phenylcyclopropyl)-3,4-dihydroquinazolin-5-yl)picolinamide TFA Salt]: the IC50 is 500 to 1000 nM.

Consider `O=C(Nc1ccc(F)c2ncn(Cc3ccccc3C(F)(F)F)c(=O)c12)c1cc(Cl)c(O)c(Cl)c1` [Example 204, 3,5-dichloro-N-(8-fluoro-4-oxo-3-(2-(trifluoromethyl)benzyl)-3,4-dihydroquinazolin-5-yl)-4-hydroxybenzamide], for which the IC50 is no more than 100 nM.

`O=C(Nc1cccc2ncn(Cc3cccc(C(F)(F)F)c3)c(=O)c12)c1cc(Cl)c(O)c(Cl)n1` [Example 40, 4,6-dichloro-5-hydroxy-N-(4-oxo-3-(3-(trifluoromethyl)benzyl)-3,4-dihydroquinazolin-5-yl)picolinamide]: the concentration for half-maximal inhibition (IC50) was in the range of 100 to 500 nM.

The compound `O=C(Nc1scnc1C(=O)NCc1cccc(C(F)(F)F)n1)c1cc(Cl)c(O)c(Cl)n1` [Example 193, 5-(4,6-dichloro-5-hydroxypicolinamido)-N-((6-(trifluoromethyl)pyridin-2-yl)methyl)thiazole-4-carboxamide] showed an IC50 of 500 to 1000 nM.

`O=C(Nc1cccc2ncn(Cc3cccc(C(F)(F)F)c3)c(=O)c12)c1cc(Cl)c(O)c(Cl)c1` [Example 11, 3,5-dichloro-4-hydroxy-N-(4-oxo-3-(3-(trifluoromethyl)benzyl)-3,4-dihydroquinazolin-5-yl)benzamide] showed an IC50 of no more than 100 nM.

Consider `O=C(Nc1scnc1C(=O)NCc1ccccc1OC(F)(F)F)c1cc(Cl)c(O)c(Cl)n1` [Example 191, 5-(4,6-dichloro-5-hydroxypicolinamido)-N-(2-(trifluoromethoxy)benzyl) thiazole-4-carboxamide], for which the IC50 was no more than 100 nM.

In turn, `O=C(Nc1cccc2ncn(Cc3ncccc3Cl)c(=O)c12)c1cc(Cl)c(O)c(Cl)n1` [Example 148, 4,6-dichloro-N-(3-((3-chloropyridin-2-yl)methyl)-4-oxo-3,4-dihydroquinazolin-5-yl)-5-hydroxypicolinamide] registered an IC50 of 100 to 500 nM.

As to `O=C(Nc1csc2ncn(Cc3ccccc3OC(F)(F)F)c(=O)c12)c1cc(Cl)c(O)c(Cl)n1` [Example 104, 4,6-dichloro-5-hydroxy-N-(4-oxo-3-(2-(trifluoromethoxy)benzyl)-3,4-dihydrothieno[2,3-d]pyrimidin-5-yl)picolinamide], the half-maximal inhibitory concentration (IC50) is 100 to 500 nM.

As for `Cc1nsc(NC(=O)c2cc(Cl)c(O)c(Cl)c2)c1C(=O)NCc1ccccc1F` [Example 31, 5-(3,5-dichloro-4-hydroxybenzamido)-N-(2-fluorobenzyl)-3-methylisothiazole-4-carboxamide], the IC50 was 100 to 500 nM.

For the compound `Cc1ccc(NC(=O)c2cc(Cl)c(O)c(Cl)c2)c2c(=O)n(Cc3cccnc3C(F)(F)F)c(C)nc12` [Example 142, 3,5-dichloro-N-(2,8-dimethyl-4-oxo-3-((2-(trifluoromethyl)pyridin-3-yl)methyl)-3,4-dihydroquinazolin-5-yl)-4-hydroxybenzamide], the IC50 lay within 100 to 500 nM.

Take `O=C(Nc1cccc2ncn(Cc3ccc(C(F)(F)F)cc3)c(=O)c12)c1cc(Cl)c(O)c(Cl)c1` [Example 6, 3,5-dichloro-4-hydroxy-N-(4-oxo-3-(4-(trifluoromethyl)benzyl)-3,4-dihydroquinazolin-5-yl)benzamide]: the half-maximal inhibitory concentration (IC50) is no more than 100 nM.

In turn, `CC(C)(C)CCn1cnc2cccc(NC(=O)c3cc(Cl)c(O)c(Cl)c3)c2c1=O` [Example 57, 3,5-dichloro-N-(3-(3,3-dimethylbutyl)-4-oxo-3,4-dihydroquinazolin-5-yl)-4-hydroxybenzamide] returned an IC50 of 100 to 500 nM.

Take `NS(=O)(=O)c1ccccc1Cn1cnc2cccc(NC(=O)c3cc(Cl)c(O)c(Cl)c3)c2c1=O` [Example 106, 3,5-dichloro-4-hydroxy-N-(4-oxo-3-(2-sulfamoylbenzyl)-3,4-dihydroquinazolin-5-yl)benzamide]: the 50% inhibitory concentration (IC50) was greater than 10000 nM.

Regarding `CN(C)CCOc1ccc(NC(=O)c2cc(Cl)c(O)c(Cl)c2)c(C(=O)NCc2ccccc2OC(F)(F)F)c1` [Example 85, 3,5-dichloro-N-(4-(2-(dimethylamino)ethoxy)-2-((2-(trifluoromethoxy)benzyl)carbamoyl)phenyl)-4-hydroxybenzamide], the IC50 is greater than 10000 nM.

For `O=C(Nc1cccc2ncn(Cc3cccnc3F)c(=O)c12)c1cc(Cl)c(O)c(Cl)c1` [Example 137, 3,5-dichloro-N-{3-[(2-fluoropyridin-3-yl)methyl]-4-oxo-3,4-dihydroquinazolin-5-yl}-4-hydroxybenzamide], the IC50 was 100 to 500 nM.

In the case of `O=C(Nc1ncsc1C(=O)NC1(c2ccc(F)cc2)CC1)c1cc(Cl)c(O)c(Cl)c1` [Example 29, 4-(3,5-dichloro-4-hydroxybenzamido)-N-(1-(4-fluorophenyl)cyclopropyl)thiazole-5-carboxamide], the half-maximal inhibitory concentration (IC50) was in the range of 100 to 500 nM.

As for `O=C(Nc1cccc2ncn(Cc3cccc(OC(F)(F)F)c3)c(=O)c12)c1cc(Cl)c(O)c(Cl)c1` [Example 10, 3,5-dichloro-4-hydroxy-N-(4-oxo-3-(3-(trifluoromethoxy)benzyl)-3,4-dihydroquinazolin-5-yl)benzamide], the IC50 was no more than 100 nM.
